Data from ChEMBL document CHEMBL1141262, “Cytotoxic diterpenoids from the hybrid soft coral Sinularia maxima x Sinularia polydactyla” (2007).

Legend:
Format in all cases: functional
DU-145 = assay: Cytotoxicity against human DU145 cells after 72 hrs; conditions: for CC50: read-out: LC50 (the source's name)
LNCaP = assay: Cytotoxicity against human LNcaP cells after 72 hrs; conditions: for CC50: read-out: LC50 (the source's name)
[1] = Cytotoxicity against human IGROV cells after 72 hrs; conditions: for CC50: read-out: LC50 (the source's name)
[2] = Cytotoxicity against ET-743 resistant human IGROV cells after 72 hrs
SK-BR-3 = assay: Cytotoxicity against human SK-BR3 cells after 72 hrs; conditions: for CC50: read-out: LC50 (the source's name)
A549 = assay: Cytotoxicity against human A549 cells after 72 hrs
K562 = assay: Cytotoxicity against human K562 cells after 72 hrs; conditions: for CC50: read-out: LC50 (the source's name)
PANC-1 = assay: Cytotoxicity against human PANC1 cells after 72 hrs; conditions: for CC50: read-out: LC50 (the source's name)
HT-29 = assay: Cytotoxicity against human HT29 cells after 72 hrs
LoVo [3] = assay: Cytotoxicity against human LoVo cells after 72 hrs; conditions: for CC50: read-out: LC50 (the source's name)
LoVo [4] = assay: Cytotoxicity against doxorubicin resistant human LoVo cells after 72 hrs
HeLa [5] = assay: Cytotoxicity against human HeLa cells after 72 hrs; conditions: for CC50: read-out: LC50 (the source's name)
HeLa [6] = assay: Cytotoxicity against aplidine resistant human HeLa cells after 72 hrs; conditions: for CC50: read-out: LC50 (the source's name)
SK-MEL-28 = assay: Cytotoxicity against human SK-MEL-28 cells after 72 hrs

Compound: C=C(C)[C@H]1C/C2=C(\C(=O)OC)C(OC(C)CC)C(=O)/C=C(\C)C[C@@H]3C=C(C(=O)O3)[C@H](C1)O2 (stereo in doubt; 3)
- GI50 (DU-145): 1.95 µM
- TGI (DU-145; Homo sapiens, DU-145, 72 h): 5.31 µM
- CC50 (DU-145; Homo sapiens, DU-145, 72 h): 13.5 µM
- GI50 (LNCaP): 1.69 µM
- TGI (LNCaP): 5.17 µM
- CC50 (LNCaP): 14.3 µM
- GI50 [1]: 0.52 µM
- TGI [1]: 1.1 µM
- CC50 [1]: 3.3 µM
- GI50 [2]: 1.03 µM
- TGI [2]: 3.64 µM
- LC50 (50% lethal concentration) ([2]; Homo sapiens, IGROV, 72 h): 20.4 µM
- GI50 (SK-BR-3): 0.039 µM
- TGI (SK-BR-3): 0.28 µM
- CC50 (SK-BR-3; Homo sapiens, SK-BR-3, 72 h): > 22.5 µM
- GI50 (A549): 1.32 µM
- TGI (A549): 4.59 µM
- LC50 (A549; Homo sapiens, A549, 72 h): 16.3 µM
- GI50 (K562): 1.21 µM
- TGI (K562): 2.47 µM
- CC50 (K562; Homo sapiens, K562, 72 h): 10.6 µM
- GI50 (PANC-1): 0.58 µM
- TGI (PANC-1): 1.57 µM
- CC50 (PANC-1): 7.4 µM
- GI50 (HT-29): 1.47 µM
- TGI (HT-29): 4.14 µM
- LC50 (concentration killing 50% of cells) (HT-29; Homo sapiens, HT-29, 72 h): 11.1 µM
- GI50 (LoVo [3]): 0.51 µM
- TGI (LoVo [3]): 1.16 µM
- CC50 (LoVo [3]): 3.8 µM
- GI50 (LoVo [4]): 0.75 µM
- LC50 (LoVo [4]; Homo sapiens, LoVo, 72 h): 13.8 µM
- TGI (LoVo [4]; Homo sapiens, LoVo, 72 h): 2.72 µM
- GI50 (HeLa [5]): 0.48 µM
- TGI (HeLa [5]): 0.93 µM
- CC50 (HeLa [5]): 1.8 µM
- GI50 (HeLa [6]): 0.56 µM
- TGI (HeLa [6]): 1.31 µM
- CC50 (HeLa [6]): 5.26 µM
- GI50 (SK-MEL-28): 0.54 µM
- LC50 (SK-MEL-28): 2.13 µM
- TGI (SK-MEL-28): 1.08 µM

Compound: C=C(C)[C@H]1C/C2=C(\C(=O)OC)C(OC(C)CC)C(=O)/C=C(\C)C[C@@H]3C=C(C(=O)O3)[C@H](C1)O2 (stereo in doubt; 2)
- GI50 (DU-145): 3.98 µM
- TGI (DU-145): 7.56 µM
- CC50 (DU-145): 14.4 µM
- GI50 [1]: 3.4 µM
- TGI [1]: 6.91 µM
- CC50 [1]: 14.1 µM
- GI50 [2]: 3.96 µM
- LC50 (50% lethal concentration) [2]: 15.8 µM
- TGI [2]: 7.92 µM
- GI50 (SK-BR-3): 0.58 µM
- TGI (SK-BR-3): 1.43 µM
- GI50 (A549): 5.85 µM
- LC50 (A549): > 22.5 µM
- TGI (A549): 12.3 µM
- GI50 (K562): 5.26 µM
- TGI (K562): 9.45 µM
- CC50 (K562): 17 µM
- GI50 (PANC-1): 2.9 µM
- TGI (PANC-1): 6.91 µM
- CC50 (PANC-1): 16.5 µM
- GI50 (HT-29): 4.93 µM
- LC50 (concentration killing 50% of cells) (HT-29): 18.5 µM
- TGI (HT-29): 9.54 µM
- GI50 (LoVo [3]): 3.46 µM
- TGI (LoVo [3]): 7.49 µM
- CC50 (LoVo [3]): 16.2 µM
- GI50 (LoVo [4]): 1.87 µM
- LC50 (LoVo [4]): 11.9 µM
- TGI (LoVo [4]): 4.95 µM
- GI50 (HeLa [5]): 3.33 µM
- TGI (HeLa [5]): 7.29 µM
- CC50 (HeLa [5]): 16 µM
- GI50 (HeLa [6]): 3.17 µM
- TGI (HeLa [6]): 8.5 µM
- CC50 (HeLa [6]): 22.5 µM
- GI50 (SK-MEL-28): 3.13 µM
- LC50 (SK-MEL-28): 13.5 µM
- TGI (SK-MEL-28): 6.5 µM

Compound: C=C(C)[C@H]1C/C2=C(\C(=O)OC)[C@@H]3O[C@@](C)(CC3=O)C[C@@H]3C=C(C(=O)O3)[C@H](C1)O2
- GI50 (DU-145; Homo sapiens, DU-145, 72 h): 4.35 µM
- TGI (DU-145; Homo sapiens, DU-145, 72 h): 8.32 µM
- CC50 (DU-145; Homo sapiens, DU-145, 72 h): 15.9 µM
- GI50 (LNCaP): 5.05 µM
- TGI (LNCaP): 8.96 µM
- CC50 (LNCaP): 15.9 µM
- GI50 ([1]; Homo sapiens, IGROV, 72 h): 4.05 µM
- TGI ([1]; Homo sapiens, IGROV, 72 h): 7.68 µM
- CC50 ([1]; Homo sapiens, IGROV, 72 h): 14.6 µM
- GI50 ([2]; Homo sapiens, IGROV, 72 h): 4.56 µM
- LC50 (50% lethal concentration) ([2]; Homo sapiens, IGROV, 72 h): 16.5 µM
- TGI ([2]; Homo sapiens, IGROV, 72 h): 8.68 µM
- GI50 (SK-BR-3; Homo sapiens, SK-BR-3, 72 h): 6.4 µM
- TGI (SK-BR-3; Homo sapiens, SK-BR-3, 72 h): 11.4 µM
- CC50 (SK-BR-3; Homo sapiens, SK-BR-3, 72 h): 20.3 µM
- GI50 (A549; Homo sapiens, A549, 72 h): 5.56 µM
- LC50 (A549; Homo sapiens, A549, 72 h): 25.6 µM
- TGI (A549; Homo sapiens, A549, 72 h): 11.9 µM
- GI50 (K562; Homo sapiens, K562, 72 h): 5.58 µM
- TGI (K562; Homo sapiens, K562, 72 h): 8.89 µM
- CC50 (K562; Homo sapiens, K562, 72 h): 14.2 µM
- GI50 (PANC-1; Homo sapiens, PANC-1, 72 h): 3.64 µM
- TGI (PANC-1; Homo sapiens, PANC-1, 72 h): 7.15 µM
- CC50 (PANC-1; Homo sapiens, PANC-1, 72 h): 14.1 µM
- GI50 (HT-29; Homo sapiens, HT-29, 72 h): 6.48 µM
- LC50 (concentration killing 50% of cells) (HT-29; Homo sapiens, HT-29, 72 h): > 25.6 µM
- TGI (HT-29; Homo sapiens, HT-29, 72 h): 15.4 µM
- GI50 (LoVo [3]; Homo sapiens, LoVo, 72 h): 3.41 µM
- TGI (LoVo [3]; Homo sapiens, LoVo, 72 h): 6.61 µM
- CC50 (LoVo [3]; Homo sapiens, LoVo, 72 h): 12.8 µM
- GI50 (LoVo [4]; Homo sapiens, LoVo, 72 h): 5.66 µM
- LC50 (LoVo [4]; Homo sapiens, LoVo, 72 h): > 25.6 µM
- TGI (LoVo [4]; Homo sapiens, LoVo, 72 h): 16.5 µM
- GI50 (HeLa [5]; Homo sapiens, HeLa, 72 h): 4.38 µM
- TGI (HeLa [5]; Homo sapiens, HeLa, 72 h): 8.04 µM
- CC50 (HeLa [5]; Homo sapiens, HeLa, 72 h): 14.8 µM
- GI50 (HeLa [6]; Homo sapiens, HeLa, 72 h): 3.77 µM
- TGI (HeLa [6]; Homo sapiens, HeLa, 72 h): 7.5 µM
- CC50 (HeLa [6]; Homo sapiens, HeLa, 72 h): 15 µM
- GI50 (SK-MEL-28; Homo sapiens, SK-MEL-28, 72 h): 4.25 µM
- LC50 (SK-MEL-28; Homo sapiens, SK-MEL-28, 72 h): 13.6 µM
- TGI (SK-MEL-28; Homo sapiens, SK-MEL-28, 72 h): 7.61 µM
